pEC50: −log10 of the molar value.
Each compound was assayed on HBV rcDNA in HepDE19 cells (assay: HepDE19 assay with bDNA quantitation of HBV rcDNA). Conditions: HepDE19 assay, inhibition of rcDNA formation, bDNA quantitation; read-out: DE-19bDNA EC50.
Assay type: cell-based, hepatitis B virus

**Q.** `CC(O)c1cc(F)cc2[nH]c(C(=O)N(C)[C@@H]3COCc4[nH]c(=O)c5cc(F)c(F)cc5c43)cc12` (single isomer, unassigned) [Compound 354] was tested. Which pEC50 did it give?
**A.** 7.70

**Q.** How did the pEC50 turn out when `CN(C(=O)c1cc2sccc2[nH]1)C1COCc2[nH]c(=O)c3cc(F)ccc3c21` (single isomer, unassigned) [Compound 380, N-(8-Fluoro-6-oxo-1,4,5,6-tetrahydro-2H-pyrano[3,4-c]isoquinolin-1-yl)-N-methyl-4H-thieno[3,2-b]pyrrole-5-carboxamide] was run?
**A.** 6.06

**Q.** How did the pEC50 turn out when `CN(C(=O)c1cc2sccc2[nH]1)C1COCc2[nH]c(=O)c3cc(F)ccc3c21` (single isomer, unassigned) [Compound 381, N-(8-Fluoro-6-oxo-1,4,5,6-tetrahydro-2H-pyrano[3,4-c]isoquinolin-1-yl)-N-methyl-4H-thieno[3,2-b]pyrrole-5-carboxamide] was run?
**A.** 7.40

**Q.** How did the pEC50 turn out when `CN(C(=O)c1cc2c(C#N)cc(F)cc2[nH]1)C1COCc2[nH]c(=O)c3cc(F)ccc3c21` (single isomer, unassigned) [Compound 382, 4-Cyano-6-fluoro-N-(8-fluoro-6-oxo-1,4,5,6-tetrahydro-2H-pyrano[3,4-c]isoquinolin-1-yl)-N-methyl-1H-indole-2-carboxamide] was run?
**A.** 6.01

**Q.** How did the pEC50 turn out when `CN(C(=O)c1cc2c(C#N)cc(F)cc2[nH]1)C1COCc2[nH]c(=O)c3cc(F)ccc3c21` (single isomer, unassigned) [Compound 383, 4-Cyano-6-fluoro-N-(8-fluoro-6-oxo-1,4,5,6-tetrahydro-2H-pyrano[3,4-c]isoquinolin-1-yl)-N-methyl-1H-indole-2-carboxamide] was run?
**A.** 7.40

**Q.** `CN(C(=O)c1cc2ccc(C(F)F)cn2c1)C1CNCc2[nH]c(=O)c3cc(F)c(F)cc3c21` (single isomer, unassigned) [Compound 387, N-(8,9-Difluoro-6-oxo-1,2,3,4,5,6-hexahydrobenzo[c][1,7]naphthyridin-1-yl)-6-(difluoromethyl)-N-methylindolizine-2-carboxamide] was tested. Which pEC50 did it give?
**A.** 4.96

**Q.** `CN(C(=O)c1cc2ccc(C(F)F)cn2c1)C1CNCc2[nH]c(=O)c3cc(F)c(F)cc3c21` (single isomer, unassigned) [Compound 388, N-(8,9-Difluoro-6-oxo-1,2,3,4,5,6-hexahydrobenzo[c][1,7]naphthyridin-1-yl)-6-(difluoromethyl)-N-methylindolizine-2-carboxamide] was tested. Which pEC50 did it give?
**A.** 6.96

**Q.** With `CN(C(=O)c1ccc2cccn2c1)C1COCc2[nH]c(=O)c3cc(F)ccc3c21` (single isomer, unassigned) [Compound 389, N-(8-Fluoro-6-oxo-1,4,5,6-tetrahydro-2H-pyrano[3,4-c]isoquinolin-1-yl)-N-methylindolizine-6-carboxamide] as the compound, how does the pEC50 read?
**A.** 4.77

**Q.** How did the pEC50 turn out when `CN(C(=O)c1ccc2cccn2c1)C1COCc2[nH]c(=O)c3cc(F)ccc3c21` (single isomer, unassigned) [Compound 390, N-(8-Fluoro-6-oxo-1,4,5,6-tetrahydro-2H-pyrano[3,4-c]isoquinolin-1-yl)-N-methylindolizine-6-carboxamide] was run?
**A.** 7.15

**Q.** `CN(C(=O)c1ccc2cccn2c1)C1CNCc2[nH]c(=O)c3cc(F)c(F)cc3c21` (single isomer, unassigned) [Compound 391, N-(8,9-difluoro-6-oxo-1,2,3,4,5,6-hexahydrobenzo[c][1,7]naphthyridin-1-yl)-N-methylindolizine-6-carboxamide] was tested. Which pEC50 did it give?
**A.** 4.66

**Q.** `CN(C(=O)c1ccc2cccn2c1)C1CNCc2[nH]c(=O)c3cc(F)c(F)cc3c21` (single isomer, unassigned) [Compound 392, N-(8,9-difluoro-6-oxo-1,2,3,4,5,6-hexahydrobenzo[c][1,7]naphthyridin-1-yl)-N-methylindolizine-6-carboxamide] was tested. Which pEC50 did it give?
**A.** 7.05

**Q.** With `CCc1cc(F)cc2[nH]c(C(=O)N(C)C3COCc4[nH]c(=O)c5cc(F)ccc5c43)cc12` (single isomer, unassigned) [Compound 393, 4-Ethyl-6-fluoro-N-(8-fluoro-6-oxo-1,4,5,6-tetrahydro-2H-pyrano[3,4-c]isoquinolin-1-yl)-N-methyl-1H-indole-2-carboxamide] as the compound, how does the pEC50 read?
**A.** 5.92

**Q.** With `CCc1cc(F)cc2[nH]c(C(=O)N(C)C3COCc4[nH]c(=O)c5cc(F)ccc5c43)cc12` (single isomer, unassigned) [Compound 394, 4-Ethyl-6-fluoro-N-(8-fluoro-6-oxo-1,4,5,6-tetrahydro-2H-pyrano[3,4-c]isoquinolin-1-yl)-N-methyl-1H-indole-2-carboxamide] as the compound, how does the pEC50 read?
**A.** 6.34

**Q.** `CN(C(=O)c1cc2cc(C#N)ccc2[nH]1)C1COCc2[nH]c(=O)c3cc(F)ccc3c21` (single isomer, unassigned) [Compound 397, 5-Cyano-N-(8-fluoro-6-oxo-1,4,5,6-tetrahydro-2H-pyrano[3,4-c]isoquinolin-1-yl)-N-methyl-1H-indole-2-carboxamide] was tested. Which pEC50 did it give?
**A.** 4.77

**Q.** With `CN(C(=O)c1cc2cc(C#N)ccc2[nH]1)C1COCc2[nH]c(=O)c3cc(F)ccc3c21` (single isomer, unassigned) [Compound 398, 5-Cyano-N-(8-fluoro-6-oxo-1,4,5,6-tetrahydro-2H-pyrano[3,4-c]isoquinolin-1-yl)-N-methyl-1H-indole-2-carboxamide] as the compound, how does the pEC50 read?
**A.** 6.57

**Q.** `CN(C(=O)c1cc2c(C#N)cc(F)cc2[nH]1)C1CNCc2[nH]c(=O)c3cc(F)c(F)cc3c21` (single isomer, unassigned) [Compound 399, 4-Cyano-N-(8,9-difluoro-6-oxo-1,2,3,4,5,6-hexahydrobenzo[c][1,7]naphthyridin-1-yl)-6-fluoro-N-methyl-1H-indole-2-carboxamide] was tested. Which pEC50 did it give?
**A.** 5.42

**Q.** With `CN(C(=O)c1cc2c(C#N)cc(F)cc2[nH]1)C1CNCc2[nH]c(=O)c3cc(F)c(F)cc3c21` (single isomer, unassigned) [Compound 400, 4-Cyano-N-(8,9-difluoro-6-oxo-1,2,3,4,5,6-hexahydrobenzo[c][1,7]naphthyridin-1-yl)-6-fluoro-N-methyl-1H-indole-2-carboxamide] as the compound, how does the pEC50 read?
**A.** 7.05

**Q.** How did the pEC50 turn out when `CCc1cc(F)cc2[nH]c(C(=O)N(C)C3CNCc4[nH]c(=O)c5cc(F)c(F)cc5c43)cc12` (single isomer, unassigned) [Compound 401, N-(8,9-Difluoro-6-oxo-1,2,3,4,5,6-hexahydrobenzo[c][1,7]naphthyridin-1-yl)-4-ethyl-6-fluoro-N-methyl-1H-indole-2-carboxamide] was run?
**A.** 5.60

**Q.** `CCc1cc(F)cc2[nH]c(C(=O)N(C)C3CNCc4[nH]c(=O)c5cc(F)c(F)cc5c43)cc12` (single isomer, unassigned) [Compound 402, N-(8,9-Difluoro-6-oxo-1,2,3,4,5,6-hexahydrobenzo[c][1,7]naphthyridin-1-yl)-4-ethyl-6-fluoro-N-methyl-1H-indole-2-carboxamide] was tested. Which pEC50 did it give?
**A.** 7.70

**Q.** With `CN(C(=O)c1cnc(C(F)(F)F)c(F)c1)C1COCc2[nH]c(=O)c3cc(F)ccc3c21` (single isomer, unassigned) [Compound 414, 5-Fluoro-N-(8-fluoro-6-oxo-1,4,5,6-tetrahydro-2H-pyrano[3,4-c]isoquinolin-1-yl)-N-methyl-6-(trifluoromethyl)nicotinamide] as the compound, how does the pEC50 read?
**A.** 6.77

**Q.** How did the pEC50 turn out when `CN(C(=O)c1cc2sccc2[nH]1)C1CNCc2[nH]c(=O)c3cc(F)c(F)cc3c21` (single isomer, unassigned) [Compound 420, N-(8,9-Difluoro-6-oxo-1,2,3,4,5,6-hexahydrobenzo[c][1,7]naphthyridin-1-yl)-N-methyl-4H-thieno[3,2-b]pyrrole-5-carboxamide] was run?
**A.** 6.18

**Q.** How did the pEC50 turn out when `CN(C(=O)c1cc2sccc2[nH]1)C1CNCc2[nH]c(=O)c3cc(F)c(F)cc3c21` (single isomer, unassigned) [Compound 421, N-(8,9-Difluoro-6-oxo-1,2,3,4,5,6-hexahydrobenzo[c][1,7]naphthyridin-1-yl)-N-methyl-4H-thieno[3,2-b]pyrrole-5-carboxamide] was run?
**A.** 7.40

Same assay, conditions: Hepatitis B virus, HepDE19, HepDE19 assay, inhibition of rcDNA formation, bDNA quantitation; read-out: DE-19bDNA EC50

**Q.** With `CN(C(=O)c1cnc(C(F)(F)F)c(Cl)c1)C1COCc2[nH]c(=O)c3cc(F)ccc3c21` (single isomer, unassigned) [Compound 378, 5-Chloro-N-(8-fluoro-6-oxo-1,4,5,6-tetrahydro-2H-pyrano[3,4-c]isoquinolin-1-yl)-N-methyl-6-(trifluoromethyl)nicotinamide] as the compound, how does the pEC50 read?
**A.** 4.74

**Q.** How did the pEC50 turn out when `CN(C(=O)c1cnc(C(F)(F)F)c(Cl)c1)[C@@H]1COCc2[nH]c(=O)c3cc(F)ccc3c21` (single isomer, unassigned) [Compound 379, 5-Chloro-N-(8-fluoro-6-oxo-1,4,5,6-tetrahydro-2H-pyrano[3,4-c]isoquinolin-1-yl)-N-methyl-6-(trifluoromethyl)nicotinamide] was run?
**A.** 6.77

**Q.** `CN(C(=O)c1cc2cc(C(F)F)ccn2c1)C1CNCc2[nH]c(=O)c3cc(F)c(F)cc3c21` (single isomer, unassigned) [Compound 386, N-(8,9-Difluoro-6-oxo-1,2,3,4,5,6-hexahydrobenzo[c][1,7]naphthyridin-1-yl)-7-(difluoromethyl)-N-methylindolizine-2-carboxamide] was tested. Which pEC50 did it give?
**A.** 5.72

**Q.** With `CN(C(=O)c1cc2cc(S(C)(=O)=O)ccc2[nH]1)C1CNCc2[nH]c(=O)c3cc(F)c(F)cc3c21` (single isomer, unassigned) [Compound 403, N-(8,9-Difluoro-6-oxo-1,2,3,4,5,6-hexahydrobenzo[c][1,7]naphthyridin-1-yl)-N-methyl-5-(methylsulfonyl)-1H-indole-2-carboxamide] as the compound, how does the pEC50 read?
**A.** 4.60

**Q.** `CN(C(=O)c1cc2cc(C#N)ccc2[nH]1)C1CNCc2[nH]c(=O)c3cc(F)c(F)cc3c21` (single isomer, unassigned) [Compound 406, 5-Cyano-N-(8,9-difluoro-6-oxo-1,2,3,4,5,6-hexahydrobenzo[c][1,7]naphthyridin-1-yl)-N-methyl-1H-indole-2-carboxamide] was tested. Which pEC50 did it give?
**A.** 6.72

**Q.** With `CN(C(=O)c1cnc(C(F)(F)F)c(Cl)c1)C1CNCc2[nH]c(=O)c3cc(F)c(F)cc3c21` (single isomer, unassigned) [Compound 419, 5-Chloro-N-(8,9-difluoro-6-oxo-1,2,3,4,5,6-hexahydrobenzo[c][1,7]naphthyridin-1-yl)-N-methyl-6-(trifluoromethyl)nicotinamide] as the compound, how does the pEC50 read?
**A.** 6.85

Reference: patent publication US20240228504A1, “SUBSTITUTED TRICYCLIC AMIDES, ANALOGUES THEREOF, AND METHODS USING SAME” (Arbutus Biopharma Corporation, priority 2020, published 2024)
